“And” between values parts separate entries of the source, which are not always exact repeats. Equal values may be shown once. Read-outs that look alike come from different tables or passages of the source.
How the values were obtained:
cucumber downy mildew = assay: Protectant activity in vivo (whole plant) against cucumber downy mildew
Method: (§1) The method is as followed: The whole plant is used in this test. The compound is dissolved in a proper solvent to get mother solution. The proper solvent is selected from acetone, methanol, DMF and so on according to their dissolving capability to the sample. The volume rate of solvent and testing solution (v/v) is equal to or less than 5%. The mother solution is diluted with water containing 0.1% tween-80 to get the testing solution whose concentration is designed. The testing solution is sprayed to the host plant by a special plant sprayer. The plant is inoculated with fungus after 24 hours. According to the infecting characteristic of fungus, the plant is stored in a humidity chamber and then transferred into greenhouse after infection is finished. And the other plants are placed in greenhouse directly. The activity of compound is obtained by eyeballing after 7 days in common.

corn rust = assay: Protectant activity in vivo (whole plant) against corn rust
Method: as §1

Structure (SMILES)	protectant activity against cucumber downy mildew in vivo (cucumber downy mildew; dose 400 mg/L)	protectant activity against corn rust in vivo (corn rust; dose 400 mg/L)	also measured
N#Cc1c(Cl)c(Cl)c(Nc2cc(C(F)(F)F)ccc2Cl)c(Cl)c1C#N [Compound A-19]	100%	80%	
N#Cc1c(Cl)c(Cl)c(Nc2ccc(Cl)cc2[N+](=O)[O-])c(Cl)c1C#N [Compound A-23]	100%	80%	
N#Cc1cc(C#N)c(Cl)c(Nc2c(Cl)c(Cl)c(C#N)c(C#N)c2Cl)c1 [Compound A-59]	100%	100%	
N#Cc1c(Cl)c(Cl)c(Nc2cc(Cl)cnc2Cl)c(Cl)c1C#N [Compound A-85]	100%	80%	
Cc1ccccc1Nc1c(Cl)c(Cl)c(C#N)c(Cl)c1C#N [Compound B-1]		100%	
N#Cc1c(Cl)c(Cl)c(Nc2ccc(F)cc2F)c(C#N)c1Cl [Compound B-14]	100%	100%	
N#Cc1cc([N+](=O)[O-])ccc1Nc1c(Cl)c(Cl)c(C#N)c(Cl)c1C#N [Compound B-38]	100%	100%	
N#Cc1c(Cl)c(Cl)c(Nc2c(Cl)cc([N+](=O)[O-])cc2Br)c(C#N)c1Cl [Compound B-55]		100%	the protectant activity (%) against corn rust (corn rust; 6.25 mg/L): 0%; the protectant activity (%) against corn rust (corn rust; 25 mg/L): 25%; the protectant activity (%) against corn rust (corn rust; 100 mg/L): 100%; the protectant activity (%) against corn rust (corn rust; 400 mg/L): 100%; protectant activity against corn rust in vivo (corn rust; dose 100 mg/L): 100%
CCN(CC)c1c(Cl)c(Nc2ccccc2[N+](=O)[O-])c(C#N)c(Cl)c1C#N [Compound B-70]		100%	
N#Cc1c(F)c(F)c(Nc2c(Cl)cc([N+](=O)[O-])cc2Cl)c(C#N)c1F [Compound B-109]	100%		protectant activity against cucumber downy mildew in vivo (cucumber downy mildew; dose 50 mg/L): 100%; protectant activity against cucumber downy mildew in vivo (cucumber downy mildew; dose 100 mg/L): 100%
N#Cc1c(F)c(F)c(Nc2c(Cl)cc(C(F)(F)F)cc2Cl)c(C#N)c1F [Compound B-111]	100%	100%	protectant activity against cucumber downy mildew in vivo (cucumber downy mildew; dose 50 mg/L): 98%; protectant activity against cucumber downy mildew in vivo (cucumber downy mildew; dose 100 mg/L): 100%
N#Cc1c(F)c(F)c(Nc2c(Br)cc([N+](=O)[O-])cc2Br)c(C#N)c1F [Compound B-115]	100%		
N#Cc1cc([N+](=O)[O-])cc(Br)c1Nc1c(F)c(F)c(C#N)c(F)c1C#N [Compound B-116]	100%		
N#Cc1c(Cl)c(Cl)c(Nc2ncc(C(F)(F)F)cc2Cl)c(C#N)c1Cl [Compound B-125]	100%		protectant activity against cucumber downy mildew in vivo (cucumber downy mildew; dose 50 mg/L): 98%; protectant activity against cucumber downy mildew in vivo (cucumber downy mildew; dose 100 mg/L): 100%
N#Cc1c(Cl)c(Cl)c(Nc2c(Cl)cncc2Cl)c(C#N)c1Cl [Compound B-139]	100%		the protectant activity (%) against cucumber downy mildew (cucumber downy mildew; 12.5 mg/L): 100%; the protectant activity (%) against cucumber downy mildew (cucumber downy mildew; 25 mg/L): 98%; the protectant activity (%) against cucumber downy mildew (cucumber downy mildew; 50 mg/L): 98%; the protectant activity (%) against cucumber downy mildew (cucumber downy mildew; 100 mg/L): 100%; protectant activity against cucumber downy mildew in vivo (cucumber downy mildew; dose 12.5 mg/L): 98%; protectant activity against cucumber downy mildew in vivo (cucumber downy mildew; dose 50 mg/L): 98%; protectant activity against cucumber downy mildew in vivo (cucumber downy mildew; dose 100 mg/L): 100%
N#Cc1ccc(Nc2c(Cl)c(C#N)c(Cl)c(Cl)c2C#N)cc1 [Compound C-12]	100%		
N#Cc1c(Cl)c(Cl)c(C#N)c(Nc2ccc(OC(F)(F)F)cc2)c1Cl [Compound C-13]	100%		
N#Cc1c(Cl)c(Cl)c(C#N)c(Nc2ccc([N+](=O)[O-])cc2Cl)c1Cl [Compound C-28]	100%		
N#Cc1c(Cl)c(Cl)c(C#N)c(Nc2cc([N+](=O)[O-])ccc2Cl)c1Cl [Compound C-29]		80%	
N#Cc1c(Cl)c(Cl)c(C#N)c(Nc2ccc(C(F)(F)F)cc2Cl)c1Cl [Compound C-30]	100%		protectant activity against cucumber downy mildew in vivo (cucumber downy mildew; dose 100 mg/L): 90%

Structure (SMILES)	protectant activity against cucumber downy mildew in vivo (cucumber downy mildew; dose 400 mg/L)	protectant activity against corn rust in vivo (corn rust; dose 400 mg/L)	also measured
N#Cc1c(Cl)c(Cl)c(C#N)c(Nc2cc(C(F)(F)F)ccc2Cl)c1Cl [Compound C-32]	100%		
COc1cc([N+](=O)[O-])ccc1Nc1c(Cl)c(C#N)c(Cl)c(Cl)c1C#N [Compound C-35]	100%		
N#Cc1ccc(Nc2c(Cl)c(C#N)c(Cl)c(Cl)c2C#N)cc1C(F)(F)F [Compound C-38]	100%		protectant activity against cucumber downy mildew in vivo (cucumber downy mildew; dose 100 mg/L): 100% and 90%
N#Cc1c(Cl)c(Cl)c(C#N)c(Nc2ccc(Cl)c(C(F)(F)F)c2)c1Cl [Compound C-39]		100%	
N#Cc1c(Cl)c(Cl)c(C#N)c(Nc2c(Br)cc([N+](=O)[O-])cc2Br)c1Cl [Compound C-41]		100%	the protectant activity (%) against corn rust (corn rust; 6.25 mg/L): 50%; the protectant activity (%) against corn rust (corn rust; 25 mg/L): 90%; the protectant activity (%) against corn rust (corn rust; 100 mg/L): 100%; the protectant activity (%) against corn rust (corn rust; 400 mg/L): 100%; protectant activity against corn rust in vivo (corn rust; dose 25 mg/L): 90%; protectant activity against corn rust in vivo (corn rust; dose 100 mg/L): 100%
N#Cc1c(Cl)c(Cl)c(C#N)c(Nc2ccc(F)c(F)c2F)c1Cl [Compound C-51]	100%		
CNC(=O)c1cc(Cl)cc(C)c1Nc1c(Cl)c(C#N)c(Cl)c(Cl)c1C#N [Compound C-56]	100%		
N#Cc1c(F)c(F)c(C#N)c(Nc2ccc([N+](=O)[O-])cc2)c1F [Compound C-70]	100%		
N#Cc1c(F)c(F)c(C#N)c(Nc2ccc([N+](=O)[O-])cc2F)c1F [Compound C-79]	100%		
N#Cc1c(F)c(F)c(C#N)c(Nc2cc([N+](=O)[O-])ccc2Cl)c1F [Compound C-81]	100%		
COc1cc([N+](=O)[O-])ccc1Nc1c(F)c(C#N)c(F)c(F)c1C#N [Compound C-88]			protectant activity against cucumber downy mildew in vivo (cucumber downy mildew; dose 50 mg/L): 98%
N#Cc1c(F)c(F)c(C#N)c(Nc2ccc(Cl)cc2[N+](=O)[O-])c1F [Compound C-89]		80%	
N#Cc1c(F)c(F)c(C#N)c(Nc2c(Cl)cc([N+](=O)[O-])cc2Cl)c1F [Compound C-93]	100%		
N#Cc1c(F)c(F)c(C#N)c(Nc2c(Br)cc([N+](=O)[O-])cc2Br)c1F [Compound C-96]			protectant activity against cucumber downy mildew in vivo (cucumber downy mildew; dose 50 mg/L): 98%
N#Cc1cc([N+](=O)[O-])cc(Br)c1Nc1c(F)c(C#N)c(F)c(F)c1C#N [Compound C-97]	100%		
N#Cc1c(F)c(F)c(C#N)c(Nc2c(Cl)cc([N+](=O)[O-])cc2Br)c1F [Compound C-99]		100%	
N#Cc1cc(C#N)c(Nc2c(Cl)c(C#N)c(Cl)c(Cl)c2C#N)nc1Cl [Compound C-114]		100%	
N#Cc1c(F)c(F)c(C#N)c(Nc2c(Cl)cncc2Cl)c1F [Compound C-125]		100%	
N#Cc1c(F)c(Cl)c(Nc2ccc(Cl)cc2)c(C#N)c1F [KC18]			pest or weed control at 6.25 µg/mL (corn rust; Zea mays, 168 h, 6.25 mg/L): 0%; pest or weed control at 25 µg/mL (corn rust; Zea mays, 168 h, 25 mg/L): 0%; pest or weed control at 100 µg/mL (corn rust; Zea mays, 168 h, 100 mg/L): 0%; pest or weed control at 400 µg/mL (corn rust; Zea mays, 168 h, 400 mg/L, read-out: the protectant activity (%) against corn rust): 0%; pest or weed control at 400 µg/mL (corn rust; Zea mays, 168 h, dose 400 mg/L, read-out: protectant activity against corn rust in vivo): 0%

Reference: patent US8937072B2, “Substituted cyanoaniline compounds, preparation and use thereof” (Sinochem Corporation, priority 2011, dated 2015)
